Measurements taken from ChEMBL document CHEMBL1123583 (J Med Chem, 1987).

What was measured:
[1] = Acid dissociation constant was determined for the compound; format: ADME
[2] = molecular target: Histamine H2 receptor (Cavia porcellus) (UniProt P47747)
[3] = molecular target: Histamine H2 receptor (Cavia porcellus) (UniProt P47747); remark: listed apart in the source
[4] = molecular target: Histamine H2 receptor (Cavia porcellus) (UniProt P47747); remark: listed apart in the source
[5] = molecular target: T1, Histamine H2 receptor (Cavia porcellus, UniProt P47747); test: Antagonistic activity of guinea pig Histamine H2 receptor expressed as pA2 at pH 7.4; format: functional; settings: read-out: pA2 (converted)
[6] = molecular target: T1, Histamine H2 receptor; test: Antagonistic activity of guinea pig Histamine H2 receptor expressed as pA2 at pH 7.8; format: functional; settings: read-out: pA2 (converted)
[7] = molecular target: T1, Histamine H2 receptor; test: Antagonistic activity of guinea pig Histamine H2 receptor expressed as pA2 at pH 7.0; format: functional; settings: read-out: pA2 (converted)

Histamine H2 receptor (Cavia porcellus), sequence (P47747 whole entry): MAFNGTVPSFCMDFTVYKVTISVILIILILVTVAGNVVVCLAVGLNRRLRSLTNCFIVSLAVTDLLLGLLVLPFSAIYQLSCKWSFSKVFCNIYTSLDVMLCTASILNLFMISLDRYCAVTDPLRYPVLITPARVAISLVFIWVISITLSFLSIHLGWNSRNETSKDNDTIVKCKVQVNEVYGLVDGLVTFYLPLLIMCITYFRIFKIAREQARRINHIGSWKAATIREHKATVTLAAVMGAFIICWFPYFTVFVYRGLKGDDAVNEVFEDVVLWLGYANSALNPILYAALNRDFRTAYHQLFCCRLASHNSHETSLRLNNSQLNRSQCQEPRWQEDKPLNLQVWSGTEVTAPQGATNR
T1 sequence (P47747 whole entry): as above

Compound | pKa ([1]; read-out: pKa1) | pD2 [2] | pD2 [3] | pD2 [4] | pKa ([1]; read-out: pKa2) | Kb [5] | Kb [6] | Kb [7]
CN/C(=N/CCSCc1nc[nH]c1C)NC#N [CIMETIDINE] | 6.98 |  |  |  |  |  |  | 
NCCc1c[nH]cn1 [HISTAMINE] | 9.57 | 5.89 | 5.81 | 5.88 | 6.1 |  |  | 
CC(C)/N=C/Nc1ccc(-c2c[nH]cn2)cc1 [MIFENTIDINE] | 8.82 |  |  |  | 5.64 | 0.0174 µM | 0.0117 µM | 0.0457 µM
